We go through 32 compounds from ChEMBL document CHEMBL3797038, “Synthesis and pharmacological evaluation of new biphenylic derivatives as CB2 receptor ligands” (Eur J Med Chem, 2016).

Active and inactive are the calls of the source. The rule behind the calls is not given here.

Assay [1] concerns the target T1, Cannabinoid receptor 2 (Homo sapiens, UniProt P34972). Nature of the assay: Displacement of [3H]CP55940 from human CB2 receptor expressed in CHO cell membranes after 2 hrs. Background: Loss of bound radioactivity is the signal in a displacement assay; it reports binding, not function.
Assay [2] has as its system CHO. Nature of the assay: Selectivity index, ratio of Ki for human CB1 receptor expressed in CHO cell membranes to Ki for human CB2 receptor expressed in CHO cell membranes. The assay is classed as cell-based.
Assay [3] concerns the target Cannabinoid receptor 1 (Homo sapiens, UniProt P21554). Nature of the assay: Displacement of [3H]CP55940 from human CB1 receptor expressed in CHO cell membranes after 2 hrs.
Assay [4] concerns the target T1, Cannabinoid receptor 2. The experiment in a line: Agonist activity at human CB2 receptor expressed in CHO cell membranes after 90 mins by [35S]GTPgammaS binding assay. The assay is classed as functional. Background: Binding of GTPγS marks nucleotide exchange on a G protein.
In assay [5] the target is T1, Cannabinoid receptor 2. The experiment in a line: Inverse agonist activity at human CB2 receptor expressed in CHO cell membranes after 90 mins by [35S]GTPgammaS binding assay. It counts as functional.
Assay [6] has as its target T1, Cannabinoid receptor 2. The experiment in a line: Neutral antagonist activity at human CB2 receptor expressed in CHO cell membranes after 90 mins by [35S]GTPgammaS binding assay. The assay is classed as functional.
The target of assay [7] is T1, Cannabinoid receptor 2. The experiment in a line: Protean agonist activity at human CB2 receptor expressed in CHO cell membranes after 90 mins by [35S]GTPgammaS binding assay. It counts as functional.
Assay [8] addresses T1, Cannabinoid receptor 2. Nature of the assay: Inhibition of N-cycloheptyl-4-methoxy-5-methylbiphenyl-3-carboxamide maximal response at human CB2 receptor expressed in CHO cell membranes by [35S]GTPgammaS binding assay. It counts as functional.
Assay [9] has as its target T1, Cannabinoid receptor 2. Nature of the assay: Competitive antagonist activity at human CB2 receptor expressed in CHO cell membranes assessed as inhibition of N-cycloheptyl-4-methoxy-5-methylbiphenyl-3-carboxamide-mediated receptor stimulation by [35S]GTPgammaS binding assay. It counts as functional.
Assay [10] has as its target T1, Cannabinoid receptor 2. Nature of the assay: Antagonist activity at human CB2 receptor expressed in CHO cell membranes assessed as inhibition of HU-210 mediated-stimulation at 1 to 10 uM by [35S]GTPgammaS binding assay. The assay is classed as functional.
The target in assay [11] is T1, Cannabinoid receptor 2. Nature of the assay: Neutral antagonist activity at human CB2 receptor expressed in CHO cell membranes up to 10 uM after 90 mins by [35S]GTPgammaS binding assay. It counts as functional.

T1 sequence (P34972 whole entry): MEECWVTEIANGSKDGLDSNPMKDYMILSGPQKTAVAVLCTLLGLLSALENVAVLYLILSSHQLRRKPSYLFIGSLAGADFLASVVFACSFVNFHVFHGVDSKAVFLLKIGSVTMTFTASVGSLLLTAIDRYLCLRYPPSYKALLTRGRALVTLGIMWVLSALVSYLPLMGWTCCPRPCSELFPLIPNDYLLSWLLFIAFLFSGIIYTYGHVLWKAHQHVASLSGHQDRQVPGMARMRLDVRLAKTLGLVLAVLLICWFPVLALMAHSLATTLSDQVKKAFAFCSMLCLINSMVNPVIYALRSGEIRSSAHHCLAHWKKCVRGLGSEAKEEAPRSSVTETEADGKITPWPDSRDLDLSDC
Sequence of Cannabinoid receptor 1 (P21554 whole entry): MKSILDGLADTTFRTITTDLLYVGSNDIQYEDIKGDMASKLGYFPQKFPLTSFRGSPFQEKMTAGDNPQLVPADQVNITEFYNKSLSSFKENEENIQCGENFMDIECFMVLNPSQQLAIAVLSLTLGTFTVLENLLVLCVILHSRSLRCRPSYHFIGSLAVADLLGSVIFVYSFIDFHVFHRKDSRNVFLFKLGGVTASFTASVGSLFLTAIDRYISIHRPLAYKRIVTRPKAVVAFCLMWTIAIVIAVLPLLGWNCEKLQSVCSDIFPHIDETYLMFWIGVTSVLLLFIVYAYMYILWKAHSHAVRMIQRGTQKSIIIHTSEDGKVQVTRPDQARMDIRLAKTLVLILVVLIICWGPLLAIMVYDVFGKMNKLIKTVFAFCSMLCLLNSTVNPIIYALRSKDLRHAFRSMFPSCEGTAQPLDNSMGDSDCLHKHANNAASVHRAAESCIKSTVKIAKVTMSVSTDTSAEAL

Take `COc1ccc(-c2cc(Cc3ccc(F)cc3)c(OC)c(C(=O)N[C@H]3CC[C@H](C)CC3)c2)cc1`: the Ki worked out at 811 nM in assay [1] and 1170 nM in [3]. For the same compound, in assay [2], the Selectivity Index turned out to be 1.4.
As for `C=CCc1ccc(OC)c(-c2ccc(O)c(CC=C)c2)c1`, the result in assay [4] was Active.
For the compound `C=CCc1cc(NC(=O)CCCCCCCCCCCCCCCCC)c(O)c(-c2ccc(OC)c(CC=C)c2)c1`, the inhibition constant (Ki) in assay [1] was more than 10000 nM.
On to `COc1c(Cc2ccccc2)cc(-c2ccccc2)cc1C(=O)NC1CCCCCC1`, for which the values for the Ki in assay [1] and in assay [3] were 594 nM and 1560 nM, respectively. Besides, in [2], the Selectivity Index was 2.6. In addition, in assay [5], the result was Active.
As for `COc1c(Cc2ccccc2)cc(-c2ccccc2)cc1C(=O)N[C@H]1CC[C@@H](C)CC1`, the affinity in assay [1], expressed as Ki, was 2670 nM.
`C=CCc1ccc(OCCCC)c(-c2ccc(OCCCC)c(CC=C)c2)c1`: the Neutral antagonist activity result in [6] is “Active”. Further, affinity in assay [1] was put at a Ki of 1780 nM.
With `CCCCc1cc(-c2ccc(F)cc2)cc(C(=O)NC2CCCCCC2)c1OC`, the Ki in assay [1] is 166 nM; in [3] it was 6110 nM. For the same compound, the Selectivity Index in [2] is 36.8. Further, the outcome in [5] was Active.
With `COc1c(Cc2ccc(F)cc2)cc(-c2ccc(F)cc2)cc1C(=O)N[C@H]1CC[C@H](C)CC1`, the Ki in assay [1] came out at 1090 nM; in [3] it was 1850 nM. Besides, the Selectivity Index in assay [2] came to 1.7.
In the case of `COc1ccc(-c2cc(Cc3ccc(F)cc3)c(OC)c(C(=O)NC3CCCCCC3)c2)cc1`, the Neutral antagonist activity result in assay [6] is “Active”. The Ki in assay [1] and in [3] was not below 10000 nM each time.
In the case of `COc1c(C)cc(-c2ccc(F)cc2)cc1C(=O)NC1CCCCCC1`, in assay [4], the result was Active.
As for `C=CCc1ccc(OCCCC)c(-c2ccc(O)c(CC=C)c2)c1`, the outcome in assay [7] was Active.
For the compound `CCCCc1cc(-c2ccc(F)cc2)cc(C(=O)N[C@H]2CC[C@@H](C)CC2)c1OC`, the Ki in [1] is 1410 nM; in assay [3], 2520 nM. The Selectivity Index in [2] was 1.8.
Regarding `COc1ccc(-c2cc(Cc3ccc(F)cc3)c(OC)c(C(=O)N[C@H]3CC[C@@H](C)CC3)c2)cc1`, in [8], the inhibition entry was “inactive”. Besides, the Ki in [1] is 196 nM; in assay [3] it was 380 nM. The inhibition entry in [9] is “Dose-dependent effect”. Besides, the Selectivity Index in [2] was 2.
As to `CCCCc1cc(-c2ccccc2)cc(C(=O)N[C@H]2CC[C@@H](C)CC2)c1OC`, the Ki worked out at 1260 nM in assay [1] and 549 nM in [3].
As to `C=CCc1ccc(OC)c(-c2ccc(OC)c(CC=C)c2)c1`, in assay [1], affinity was put at a Ki of 1380 nM. In addition, the outcome in assay [4] was Active.
`COc1c(Cc2ccc(F)cc2)cc(-c2ccccc2)cc1C(=O)N[C@H]1CC[C@H](C)CC1`: the Ki came to 2620 nM in assay [1] and 3090 nM in assay [3]. For the same compound, the Selectivity Index in assay [2] turned out to be 1.2.
For `COc1c(Cc2ccc(F)cc2)cc(-c2ccc(F)cc2)cc1C(=O)N[C@H]1CC[C@@H](C)CC1`, in that order: 337 nM, 1070 nM and 3.2.
Regarding `COc1c(Cc2ccc(F)cc2)cc(-c2ccc(F)cc2)cc1C(=O)NC1CCCCCC1`, the results for the Ki in [1] and in assay [3] were 265 nM and 2830 nM, respectively. The Selectivity Index in [2] was 10.7. Besides, in assay [5], the result was Active.
In the case of `C=CCc1ccc(O)c(-c2ccc(O)c(CC=C)c2)c1`, the Neutral antagonist activity entry in assay [6] was “Active”. The outcome in assay [5] was Active.
Turning to `CCCCc1cc(-c2ccccc2)cc(C(=O)N[C@H]2CC[C@H](C)CC2)c1OC`, the Ki in assay [1] was found to be 2390 nM; in assay [3] it was 3610 nM.
Turning to `C=CCc1cc(NC(=O)CCCCCCCCCCC)c(O)c(-c2ccc(OC)c(CC=C)c2)c1`, the Ki in assay [1] is more than 10000 nM.
In the case of `COc1c(C)cc(-c2ccccc2)cc1C(=O)NC1CCCCCC1`, the Ki turned out to be 148 nM in [1] and 656 nM in assay [3]. Besides, in assay [2], the Selectivity Index was 4.5. The outcome in assay [4] was Active.
For the compound `COc1c(Cc2ccc(F)cc2)cc(-c2ccccc2)cc1C(=O)NC1CCCCCC1`, the Ki in [1] turned out to be 84.1 nM; in assay [3] it was 904 nM. For the same compound, the Selectivity Index in [2] was determined as 10.7. The outcome in assay [5] was Active.
The corresponding values for `CCCCc1cc(-c2ccccc2)cc(C(=O)NC2CCCCCC2)c1OC` are 352 nM, 1860 nM, 5.3 and “Active”.
As for `C=CCc1ccc(O)c(-c2ccc(OC)c(CC=C)c2)c1`, the result in [4] was Active.
`COc1c(Cc2ccc(F)cc2)cc(-c2ccccc2)cc1C(=O)N[C@H]1CC[C@@H](C)CC1`: the Ki in assay [1] worked out at 1110 nM; in assay [3], 826 nM. Further, the Selectivity Index in [2] came to 1.3.
Take `CCCCc1cc(-c2ccc(OC)cc2)cc(C(=O)NC2CCCCCC2)c1OC`: in [6], the Neutral antagonist activity result is “Active”. The inhibition result in assay [10] and in assay [11] was “Active” throughout. The compound further showed a Ki in assay [1] of 249 nM.
Turning to `COc1c(Cc2ccccc2)cc(-c2ccccc2)cc1C(=O)N[C@H]1CC[C@H](C)CC1`, the Ki is 4810 nM in assay [1] and 2500 nM in assay [3].
For the compound `CCCCc1cc(-c2ccc(F)cc2)cc(C(=O)N[C@H]2CC[C@H](C)CC2)c1OC`, the Ki in assay [1] was 1760 nM; in assay [3] it was not below 10000 nM. In assay [2], the Selectivity Index was more than 5.8.
For `C=CCc1ccc(O)c(-c2ccc(OCCCC)c(CC=C)c2)c1`, the Neutral antagonist activity entry in assay [6] was “Active”. Moreover, the Ki was 103 nM in [1] and 615 nM in assay [3].
For the compound `C=CCc1cc(NC(C)=O)c(O)c(-c2ccc(OC)c(CC=C)c2)c1`, in assay [1], the Ki was more than 10000 nM.
As for `COc1ccc(-c2cc(C)c(OC)c(C(=O)NC3CCCCCC3)c2)cc1`, the Neutral antagonist activity result in assay [6] is “Active”. For the same compound, the Ki is 2740 nM in [1] and 16500 nM in assay [3]. The Selectivity Index in assay [2] is 6.1.

A word on the Ki: it is the dissociation constant of the complex between target and ligand, obtained from inhibition or displacement.
